Values quoted from earlier work, collected in publication PMC7515950, “Physiologically based pharmacokinetic modeling to assess metabolic drug–drug interaction risks and inform the drug label for fedratinib” (Cancer Chemotherapy and Pharmacology, 2020).
Read-outs that look alike come from different tables or passages of the source.

Experiments:
OATP1B1 = target: T1, OATP1B1 (Homo sapiens, UniProt Q9Y6L6); settings: read-out: Km of probe substrate, OATP1B1; from literature; ref [14]; cited from earlier work
T1 sequence (Q9Y6L6 1-691): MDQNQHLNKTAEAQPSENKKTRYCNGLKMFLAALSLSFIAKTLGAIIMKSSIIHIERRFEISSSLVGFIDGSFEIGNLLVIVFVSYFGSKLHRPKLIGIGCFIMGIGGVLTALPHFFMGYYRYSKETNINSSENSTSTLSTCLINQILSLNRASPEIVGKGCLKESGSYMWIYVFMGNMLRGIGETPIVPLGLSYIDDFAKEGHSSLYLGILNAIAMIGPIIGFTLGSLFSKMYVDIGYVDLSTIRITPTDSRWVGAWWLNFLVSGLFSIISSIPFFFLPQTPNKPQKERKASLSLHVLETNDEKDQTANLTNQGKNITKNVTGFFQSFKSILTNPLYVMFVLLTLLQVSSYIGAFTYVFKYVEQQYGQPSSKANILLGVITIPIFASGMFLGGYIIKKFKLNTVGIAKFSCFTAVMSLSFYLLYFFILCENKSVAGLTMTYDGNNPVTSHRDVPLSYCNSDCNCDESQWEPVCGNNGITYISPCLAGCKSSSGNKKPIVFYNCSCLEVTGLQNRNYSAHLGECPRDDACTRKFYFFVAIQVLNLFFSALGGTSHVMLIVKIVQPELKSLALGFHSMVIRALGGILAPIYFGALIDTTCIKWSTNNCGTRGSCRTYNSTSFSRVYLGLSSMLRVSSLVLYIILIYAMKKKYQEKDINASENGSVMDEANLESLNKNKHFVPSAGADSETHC

OCT2 = target: T2, OCT2 (Homo sapiens, UniProt O15244); settings: read-out: Km of probe substrate, OCT2; from literature; ref [12]; cited from earlier work
T2 sequence (O15244 1-555): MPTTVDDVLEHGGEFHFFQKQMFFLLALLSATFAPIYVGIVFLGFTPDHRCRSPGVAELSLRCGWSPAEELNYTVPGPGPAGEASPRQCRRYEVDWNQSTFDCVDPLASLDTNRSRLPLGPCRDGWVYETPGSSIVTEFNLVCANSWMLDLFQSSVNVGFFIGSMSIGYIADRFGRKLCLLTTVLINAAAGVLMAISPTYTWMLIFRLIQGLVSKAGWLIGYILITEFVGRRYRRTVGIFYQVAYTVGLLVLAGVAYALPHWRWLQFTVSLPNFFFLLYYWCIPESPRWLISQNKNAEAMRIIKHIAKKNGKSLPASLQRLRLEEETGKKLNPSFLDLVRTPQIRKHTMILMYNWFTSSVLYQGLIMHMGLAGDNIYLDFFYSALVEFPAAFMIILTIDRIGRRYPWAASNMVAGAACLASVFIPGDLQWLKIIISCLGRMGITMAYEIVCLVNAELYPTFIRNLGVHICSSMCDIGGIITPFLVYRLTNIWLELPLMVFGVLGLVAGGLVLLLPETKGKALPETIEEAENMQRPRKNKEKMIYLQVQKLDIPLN

[1] = cancer patients, observation, cited from earlier work; for AUC GM Ratio (90% CI) / Cmax GM Ratio (90% CI): cocktail substrate with vs without fedratinib 500 mg QD
Caco-2/TC7 = settings: reference compound of the Simcyp permeability input, 7.4:7.4; cited from earlier work
OCT1 = target: T3, OCT1 (Homo sapiens, UniProt O15245); set-up: method as in earlier work; settings: from literature; ref [11]; read-out: Km of probe substrate, OCT1; cited from earlier work
T3 construct: expressed in transfected cells; host or cells: CHO^Fi-hOCT1
T3 sequence (O15245 1-554): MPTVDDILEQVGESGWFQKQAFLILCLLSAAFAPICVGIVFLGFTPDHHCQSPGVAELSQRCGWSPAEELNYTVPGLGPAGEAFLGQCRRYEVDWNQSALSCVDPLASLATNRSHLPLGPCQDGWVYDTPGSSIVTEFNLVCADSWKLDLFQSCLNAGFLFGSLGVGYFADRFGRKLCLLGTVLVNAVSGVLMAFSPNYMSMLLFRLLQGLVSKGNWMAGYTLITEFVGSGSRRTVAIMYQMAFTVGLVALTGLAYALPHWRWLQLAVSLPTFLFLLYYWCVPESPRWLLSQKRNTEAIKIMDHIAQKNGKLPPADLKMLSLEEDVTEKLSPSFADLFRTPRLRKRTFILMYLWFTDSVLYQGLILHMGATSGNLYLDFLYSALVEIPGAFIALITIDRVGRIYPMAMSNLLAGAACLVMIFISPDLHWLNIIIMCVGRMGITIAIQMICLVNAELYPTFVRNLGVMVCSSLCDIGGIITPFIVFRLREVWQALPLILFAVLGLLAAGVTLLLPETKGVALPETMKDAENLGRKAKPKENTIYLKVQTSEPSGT

P-gp = P-gp (Homo sapiens, UniProt P08183); settings: read-out: Km of probe substrate, P-gp; from literature; ref [16]; cited from earlier work
OATP1B3 = target: T4, OATP1B3 (Homo sapiens, UniProt Q9NPD5); settings: cited from earlier work
T4 sequence (Q9NPD5 1-702): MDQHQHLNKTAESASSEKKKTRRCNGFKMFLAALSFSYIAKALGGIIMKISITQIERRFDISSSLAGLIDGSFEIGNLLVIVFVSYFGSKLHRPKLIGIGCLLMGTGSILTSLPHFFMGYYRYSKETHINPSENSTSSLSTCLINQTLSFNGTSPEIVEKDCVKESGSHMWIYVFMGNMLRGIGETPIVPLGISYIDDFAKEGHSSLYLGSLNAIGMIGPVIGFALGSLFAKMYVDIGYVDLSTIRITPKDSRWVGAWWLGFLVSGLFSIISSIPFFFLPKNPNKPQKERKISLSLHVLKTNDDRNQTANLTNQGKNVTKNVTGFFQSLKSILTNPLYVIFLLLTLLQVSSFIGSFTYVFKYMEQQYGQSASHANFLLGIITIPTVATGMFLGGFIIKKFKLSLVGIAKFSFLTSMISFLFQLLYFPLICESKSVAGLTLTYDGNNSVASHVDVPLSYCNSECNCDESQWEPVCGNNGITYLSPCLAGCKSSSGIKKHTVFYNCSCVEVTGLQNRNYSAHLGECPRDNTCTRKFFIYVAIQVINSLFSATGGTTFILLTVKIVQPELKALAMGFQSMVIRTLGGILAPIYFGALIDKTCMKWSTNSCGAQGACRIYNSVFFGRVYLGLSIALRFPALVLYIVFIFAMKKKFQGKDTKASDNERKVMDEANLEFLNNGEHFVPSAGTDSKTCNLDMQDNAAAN

[2] = cocktail substrate + fedratinib 500 mg QD, GM
[3] = cocktail substrate + fedratinib 500 mg QD, Mean (SD)
[4] = cocktail substrate alone, Mean (SD)

Chain of P-gp (P08183 whole entry): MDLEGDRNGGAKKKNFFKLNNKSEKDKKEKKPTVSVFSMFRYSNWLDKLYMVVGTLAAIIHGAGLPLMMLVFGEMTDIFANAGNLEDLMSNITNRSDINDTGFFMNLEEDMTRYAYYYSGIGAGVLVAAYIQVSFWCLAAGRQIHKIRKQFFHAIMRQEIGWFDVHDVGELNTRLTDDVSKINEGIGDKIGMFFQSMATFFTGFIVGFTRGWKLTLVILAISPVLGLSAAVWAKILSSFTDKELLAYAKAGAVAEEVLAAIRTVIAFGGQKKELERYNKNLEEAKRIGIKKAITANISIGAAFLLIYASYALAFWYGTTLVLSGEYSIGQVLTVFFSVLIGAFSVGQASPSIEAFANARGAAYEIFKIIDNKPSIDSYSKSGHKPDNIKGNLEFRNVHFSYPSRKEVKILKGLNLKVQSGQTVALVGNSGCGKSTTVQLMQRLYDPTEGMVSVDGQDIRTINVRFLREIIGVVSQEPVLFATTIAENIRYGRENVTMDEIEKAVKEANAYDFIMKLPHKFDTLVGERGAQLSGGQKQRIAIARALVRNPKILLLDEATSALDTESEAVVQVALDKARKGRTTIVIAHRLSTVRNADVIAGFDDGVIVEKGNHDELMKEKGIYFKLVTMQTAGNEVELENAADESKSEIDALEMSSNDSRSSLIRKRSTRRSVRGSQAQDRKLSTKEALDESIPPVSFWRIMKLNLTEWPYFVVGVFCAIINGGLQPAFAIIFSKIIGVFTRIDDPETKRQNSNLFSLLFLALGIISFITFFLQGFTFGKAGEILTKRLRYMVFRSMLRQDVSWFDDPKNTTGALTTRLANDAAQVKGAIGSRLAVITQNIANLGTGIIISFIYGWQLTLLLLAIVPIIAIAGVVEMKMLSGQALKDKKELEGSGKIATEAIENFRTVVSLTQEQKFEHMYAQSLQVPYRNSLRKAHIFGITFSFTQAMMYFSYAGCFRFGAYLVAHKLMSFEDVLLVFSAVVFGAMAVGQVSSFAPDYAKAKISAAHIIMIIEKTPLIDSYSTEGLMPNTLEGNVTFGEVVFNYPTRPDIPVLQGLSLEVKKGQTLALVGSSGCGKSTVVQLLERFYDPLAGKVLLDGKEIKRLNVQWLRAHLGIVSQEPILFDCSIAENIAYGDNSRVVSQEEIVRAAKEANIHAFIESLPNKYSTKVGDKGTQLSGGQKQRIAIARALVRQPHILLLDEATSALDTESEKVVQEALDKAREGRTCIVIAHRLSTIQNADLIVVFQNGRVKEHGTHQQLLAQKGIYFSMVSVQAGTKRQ

Molecule: C[C@]12CC[C@@H]3c4ccc(O)cc4CC[C@H]3[C@@H]1CC[C@@H]2O[C@@H]1O[C@H](C(=O)O)[C@@H](O)[C@H](O)[C@H]1O [Estradiol-17β-glucuronide]
- Km (OATP1B1): 8.17 µM

Molecule: CN(C)C(=N)N=C(N)N [Metformin]
- Km (OCT2): 235 µM

Molecule: COCCc1ccc(OCC(O)CNC(C)C)cc1 (stereo not drawn) [Metoprolol]
- AUC (AUCinf) [1, 2]: 1180 ng·h/mL
- Cmax [1, 2]: 199 ng/mL
- AUC (AUCinf) [1, 3]: 1460 (938) ng/mL·h
- Cmax [1, 3]: 221 (106) ng/mL
- AUC (AUCinf) ([1]; cocktail substrate alone, GM): 731 ng·h/mL
- AUC (AUCinf) [1, 4]: 880 (545) ng/mL·h
- AUC GM Ratio (90% CI) [1]: 1.77 (1.27–2.47)
- Cmax GM Ratio (90% CI) [1]: 1.60 (1.25–2.05)
- AUC GM Ratio (90% CI) ([1]; listed as metoprolol): 1.77
- Cmax GM Ratio (90% CI) ([1]; listed as metoprolol): 1.60

Molecule: Cc1ncc2n1-c1ccc(Cl)cc1C(c1ccccc1F)=NC2 [Midazolam]
- AUC (AUCinf) [1, 2]: 148 ng·h/mL
- Cmax [1, 2]: 24.2 ng/mL
- AUC (AUCinf) [1, 3]: 152 (38.6) ng/mL·h
- Cmax [1, 3]: 25.9 (8.75) ng/mL
- Cmax ([1]; cocktail substrate alone (midazolam 2 mg, omeprazole 20 mg, metoprolol 100 mg once), GM): 13.4 ng/mL
- Cmax ([1]; cocktail substrate alone (midazolam 2 mg, omeprazole 20 mg, metoprolol 100 mg once), Mean (SD)): 14.8 (7.56) ng/mL
- AUC (AUCinf) ([1]; cocktail substrate alone, GM): 41.5 ng·h/mL
- AUC (AUCinf) [1, 4]: 52.2 (37.9) ng/mL·h
- AUC GM Ratio (90% CI) [1]: 3.84 (2.62–5.63)
- Cmax GM Ratio (90% CI) [1]: 1.82 (1.49–2.21)

Molecule: COc1ccc2[nH]c([S+]([O-])Cc3ncc(C)c(OC)c3C)nc2c1 (stereo not drawn) [Omeprazole]
- AUC (AUCinf) [1, 2]: 4690 ng·h/mL
- Cmax [1, 2]: 537 ng/mL
- AUC (AUCinf) [1, 3]: 5950 (3560) ng/mL·h
- Cmax [1, 3]: 615 (286) ng/mL
- AUC (AUCinf) ([1]; cocktail substrate alone, GM): 1590 ng·h/mL
- AUC (AUCinf) [1, 4]: 2210 (1740) ng/mL·h
- AUC GM Ratio (90% CI) [1]: 2.82 (2.26–3.53)
- Cmax GM Ratio (90% CI) [1]: 1.12 (0.81–1.53)
- AUC GM Ratio (90% CI) ([1]; listed as omeprazole): 2.82
- Cmax GM Ratio (90% CI) ([1]; listed as omeprazole): 1.12

Molecule: CC(C)NCC(O)COc1cccc2ccccc12 (stereo not drawn) [Propranolol]
- Reference Compound Value (PCaco-2) (Caco-2/TC7): 43.000 10E-06 cm/s

Molecule: CC[N+](CC)(CC)CC [TEA]
- Km (OCT1): 296 µM

Molecule: C[C@H]1O[C@@H](O[C@H]2[C@@H](O)C[C@H](O[C@H]3[C@@H](O)C[C@H](O[C@H]4CC[C@@]5(C)[C@H](CC[C@@H]6[C@@H]5C[C@@H](O)[C@]5(C)[C@@H](C7=CC(=O)OC7)CC[C@]65O)C4)O[C@@H]3C)O[C@@H]2C)C[C@H](O)[C@@H]1O [digoxin]
- Km (P-gp): 385 µM

Molecule: CCK8
- Km (OATP1B3): 3.8 µM
